Laboratory results: patent publication US11332477B2, “Nitrogen containing heterocycle substituted benzoxazine oxazolidinone compound and preparation method and use thereof” (INSTITUTE OF MATERIA MEDICA, CHINESE ACADEMY OF MEDICAL …, priority 2017, dated 2022)
Values after ≈ are worked out from the molar mass of the structure shown.

Columns and labels:
[1] = system: Linezolid-resistant strain; experiment: microbe, parasite or virus in culture; format: cell-based; details: Mycobacterium tuberculosis, read-out: MIC Linezolid-resistant strain
[2] = system: clinically isolated 12525 strains (rifampicin- and isoniazid-resistant strains); experiment: microbe, parasite or virus in culture; format: cell-based; details: Mycobacterium tuberculosis, read-out: MIC 12525

| Structure (SMILES) | MIC [1] [µg/mL] | MIC [2] [µg/mL] |
| --- | --- | --- |
| CC(=O)NC[C@@H]1OC(=O)N2c3cc(F)c(N4CCSCC4)cc3OC[C@@H]12 [Compound 4, N-(((3S,3aS)-8-Fluoro-1-oxo-7-thiomorpholino-3a,4-dihydro-1H,3H-benzo[b]oxazolo[3,4-d][1,4]oxazin-3-yl)methyl)acetamide] | 0.246 (≈ 0.645 µM) | < 0.016 |
| CC(=O)NC[C@@H]1OC(=O)N2c3cc(F)c(N4CC[S+]([O-])CC4)cc3OC[C@@H]12 [Compound 23, N-(((3S,3aS)-8-Fluoro-1-oxo-7-(1-oxidothiomorpholino)-3a,4-dihydro-1H,3H-benzo[b]oxazolo[3,4-d][1,4]oxazin-3-yl)methyl)acetamide] |  | 0.053 (≈ 0.133 µM) |
| CC(=O)NC[C@H]1OC(=O)N2c3cc(F)c(N4CCSCC4)cc3OC[C@H]12 [Compound 28, N-(((3R,3aR)-8-Fluoro-1-oxo-7-thiomorpholino-3a,4-dihydro-1H,3H-benzo[b]oxazolo[3,4-d][1,4]oxazin-3-yl)methyl)acetamide] | 3.02 (≈ 7.91 µM) | 0.047 (≈ 0.123 µM) |
| CC(=O)NC[C@@H]1OC(=O)N2c3ccc(N4CCOCC4)cc3OC[C@@H]12 [Compound VII, reference compound] | 21.6 (≈ 62.2 µM) | 0.119 (≈ 0.343 µM) |
| CC(=O)NC[C@H]1CN(c2ccc(N3CCOCC3)c(F)c2)C(=O)O1 [Linezolid, reference compound] | 4 (≈ 11.9 µM) | 0.138 (≈ 0.409 µM) |
| NNC(=O)c1ccncc1 [isoniazid] | 0.032 (≈ 0.233 µM) | > 40 |
| CO[C@H]1/C=C/O[C@@]2(C)Oc3c(C)c(O)c4c(O)c(c(/C=N/N5CCN(C)CC5)c(O)c4c3C2=O)NC(=O)/C(C)=C\C=C\[C@H](C)[C@H](O)[C@@H](C)[C@@H](O)[C@@H](C)[C@H](OC(C)=O)[C@@H]1C [rifampicin] | 0.073 (≈ 0.0887 µM) | 22.4 (≈ 27.2 µM) |
